Biological target: T1, CHRM2 (Homo sapiens, UniProt P08172)
T1 construct: purchased Promega (in-house HiBiT-GPCR construct library, NanoBRET)
T1 sequence (P08172 1-466): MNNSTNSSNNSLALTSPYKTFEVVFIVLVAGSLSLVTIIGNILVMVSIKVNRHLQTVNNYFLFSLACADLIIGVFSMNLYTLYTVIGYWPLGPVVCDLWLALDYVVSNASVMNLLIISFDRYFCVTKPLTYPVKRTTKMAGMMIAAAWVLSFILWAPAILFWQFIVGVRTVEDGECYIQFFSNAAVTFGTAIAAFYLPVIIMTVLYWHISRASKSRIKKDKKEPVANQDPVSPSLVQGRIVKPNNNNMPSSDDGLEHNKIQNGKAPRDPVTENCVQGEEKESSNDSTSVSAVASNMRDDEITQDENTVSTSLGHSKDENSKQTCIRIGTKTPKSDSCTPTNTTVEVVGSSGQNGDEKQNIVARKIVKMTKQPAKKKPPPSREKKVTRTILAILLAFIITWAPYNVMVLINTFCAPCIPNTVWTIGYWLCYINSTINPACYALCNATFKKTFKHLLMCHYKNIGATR
Assay: NanoBRET screen HiBiT-CHRM2 in HEK293
Type: binding
Procedure: Each tracer candidate was screened across the entire library of HiBiT-GPCR constructs using NanoBRET as the detection modality. As depicted in Figure 4A, the specificity of interactions was evaluated through decrease in BRET due to competitive displacement of a bound tracer by excess parental compound. Each tracer was analyzed for binding to each HiBiT-GPCR fusion in the absence and in the presence of competing parental compound. Briefly, HEK293 cells were transfected with HiBiT-GPCR constructs diluted into promoterless DNA to reduce expression and maximize translocation to the cell surface. Each tracer candidate was then screened at concentrations of 1 μM and 0.1 μM across cells expressing these fusions. Cells were treated for 1.5 h with tracer either alone or in the presence of 20 μM competing parental compound (i.e., control). BRET was measured upon addition of purified LgBiT and subsequent complementation with HiBiT genetically fused to a GPCR. The specificity of interactions was assessed through a decrease in BRET signal due to competitive displacement of the bound tracer. To further gauge the robustness of these interactions, the fold response over the control (i.e., BRETtracer/BRETcontrol) was calculated. We chose a 1.5-fold response, which translates to ≥7-fold signal over noise as the minimal threshold required to score an interaction as positive.
HiBiT-GPCR DNA constructs were diluted in 10 mM Tris pH 8 to a final concentration of 0.01 μg/μL, arrayed in 96-well plates and stored at −20 °C. For transfection, HEK293 cells were suspended in Opti-MEM (without phenol red) supplemented with 2% fetal bovine serum (Seradigm) and 100 units/mL penicillin–streptomycin (Gibco) at a final concentration of 220,000 cells/mL and dispensed into white 96-well plates at 90 μL/well. Subsequent transfections and screens were carried using an Agilent Bravo Automated Liquid Handling Platform. First, the 96-well HiBiT DNA arrays were diluted 25-fold in Opti-MEM (without serum or phenol red) to a final concentration of 0.0004 μg/μL and 20 μL of the diluted DNAs were transferred into new 96-well plates. Next, promoterless carrier DNA (1 μg/μL) was diluted 25-fold (0.04 μg/μL) and then dispensed into the diluted arrays at 20 μL/well. Following brief mixing, Viafect transfection reagent (Promega) diluted 16-fold into Opti-MEM was dispensed into the plates at 40 μL/well. After mixing by pipetting, plates were incubated for 10 min on the pipetting station deck. The DNA-transfection reagent complexes were then added to plates containing cells. To facilitate the screen, 10 μL of DNA-transfection reagent complexes were added in duplicates to the top 4 and bottom 4 rows, resulting in two identical 48-well arrays per plate. Plates with transfected cells were incubated for 18–20 h at 37 °C/5% CO2. A screen of each tracer across the entire library using two different concentrations requires duplicate plates of transfected cells. Depending on the number of tracers being screened, transfections can be scaled up using the same ratios. The next day, for each tracer, four 20× screening solutions in tracer dilution buffer (Promega) were prepared: two duplicates at final concentration of 20 μM and two duplicates at a final concentration of 2 μM. […] The four resulting solutions were diluted 4-fold in Opti-MEM without serum or phenol red to generate 5× solutions (5 µM and 0.5 µM tracer +/− 100 μM competing compound). To screen the library, a BioTek MultiFlo FX liquid dispenser was used to dispense 22.5 µL of tracer solution to the top 4 rows and 22.5 µL tracer + competing compound solution to the 4 bottom rows. Plates were briefly mixed on an orbital shaker and incubated for 1.5 h at room temperature. […] Plates were briefly mixed on an orbital shaker and incubated for 15 min to allow complementation.

Structure (SMILES)	NanoBRET Fold Response (CHRM2, tracer 0.1μM)	NanoBRET Fold Response (CHRM2, tracer 1μM)	further results
O=C(CCOCCOCCOCCOCCNC(=O)CCc1ccc2n1[B-](F)(F)[N+]1=C(c3ccc[nH]3)C=CC1=C2)NCCCN1CCN(C2=Nc3ccccc3Oc3ccc(Cl)cc32)CC1 [Loxapine-a-2-NB590]	1.07	1.04	
CCCn1c(=O)c2[nH]c(-c3ccc(OCC(=O)NCCNC(=O)CCOCCNC(=O)c4ccc(CNC(=O)CCc5ccc6n5[B-](F)(F)[N+]5=C(c7ccc[nH]7)C=CC5=C6)cc4)cc3)nc2n(CCC)c1=O [XAC-3-NB590]	1.28	2.12	
CN(C)CCC=C1c2ccccc2CCc2ccc(C(=O)NCCNC(=O)CCOCCOCCOCCOCCNC(=O)CCc3ccc4n3[B-](F)(F)[N+]3=C(c5ccc[nH]5)C=CC3=C4)cc21 [Amitriptyline-a-2-NB590]			NanoBRET Fold Response (tracer at 0.1μM): 1.10; NanoBRET Fold Response (tracer at 1μM): 0.98
COc1ccccc1N1CCN(CCCCN2C(=O)c3ccc(CNC(=O)CCOCCOCCOCCOCCNC(=O)CCc4ccc5n4[B-](F)(F)[N+]4=C(c6ccc[nH]6)C=CC4=C5)cc3C2=O)CC1 [NAN-190-2-NB590]	1.13		
O=C(CCc1ccc2n1[B-](F)(F)[N+]1=C(c3ccc[nH]3)C=CC1=C2)NCc1ccc(C(=O)NCCOCCOCCNCC(O)COc2cccc3ccccc23)cc1 (stereo not drawn) [Propranolol-3-NB590]			NanoBRET Fold Response (CHRM2, 0.1μM): 1.14; NanoBRET Fold Response (CHRM2, 1μM): 1.00
COc1ccccc1N1CCN(CCCCN2C(=O)c3ccc(CNC(=O)CCOCCNC(=O)c4ccc(CNC(=O)CCc5ccc6n5[B-](F)(F)[N+]5=C(c7ccc[nH]7)C=CC5=C6)cc4)cc3C2=O)CC1 [NAN-190-3-NB590]	1.14	0.95	
O=C(CCc1ccc2n1[B-](F)(F)[N+]1=C(c3ccc[nH]3)C=CC1=C2)NCc1ccc(C(=O)NCCOCCC(=O)N[C@@H]2CC[C@@]3(O)[C@H]4Cc5ccc(O)c6c5[C@@]3(CCN4CC3CC3)[C@H]2O6)cc1 [Naltrexone-3-NB590]	0.57	1.32	
CCOC(=O)c1cc(C#N)c(N2CCC(C(=O)NS(=O)(=O)Cc3ccccc3/C=C/C(=O)NCCNC(=O)CCc3ccc4n3[B-](F)(F)[N+]3=C(c5ccc[nH]5)C=CC3=C4)CC2)nc1C [AZD1283-1-NB590]			NanoBRET Fold Response (CHRM2, 0.1μM): 1.05; NanoBRET Fold Response (CHRM2, 1μM): 0.96
COc1ccc2[nH]c(-c3ccc(CNC(=O)CCOCCOCCOCCOCCNC(=O)CCc4ccc5n4[B-](F)(F)[N+]4=C(c6ccc[nH]6)C=CC4=C5)cc3)c(CCNC(C)=O)c2n1 [AzomelatoninICO9-2-NB590]			NanoBRET Fold Response (0.1μM tracer): 1.08; NanoBRET Fold Response (1μM tracer): 0.86
CC(C)N(CC[C@H](c1ccccc1)c1cc(CCNC(=O)CCOCCOCCOCCOCCNC(=O)CCc2ccc3n2[B-](F)(F)[N+]2=C(c4ccc[nH]4)C=CC2=C3)ccc1O)C(C)C [Tolterodine-2-NB590]	2.98	1.51	
CN1CCN(C2=Nc3cc(Cl)ccc3N(CC(=O)NCCOCCOCCOCCOCCNC(=O)CCc3ccc4n3[B-](F)(F)[N+]3=C(c5ccc[nH]5)C=CC3=C4)c3ccccc32)CC1 [Clozapine-c-2-NB590]			NanoBRET Fold Response (CHRM2, 0.1μM tracer): 0.99; NanoBRET Fold Response (CHRM2, 1μM tracer): 0.87
N#CN=C(NCCCOc1cccc(CN2CCCCC2)c1)NCCNC(=O)CCOCCOCCOCCOCCNC(=O)CCc1ccc2n1[B-](F)(F)[N+]1=C(c3ccc[nH]3)C=CC1=C2 [Aminopotentidine-2-NB590]	1.66	1.68	
COc1ccc2c(n1)c(CCNC(C)=O)cn2CCNC(=O)CCc1ccc2n1[B-](F)(F)[N+]1=C(c3ccc[nH]3)C=CC1=C2 [Azamelatonin-1-NB590]			NanoBRET Fold Response (0.1μM tracer): 0.80; NanoBRET Fold Response (1μM tracer): 1.35
CN(CCC=C1c2ccccc2CCc2ccccc21)C(=O)CCOCCOCCOCCOCCNC(=O)CCc1ccc2n1[B-](F)(F)[N+]1=C(c3ccc[nH]3)C=CC1=C2 [Amitriptyline-e-2-NB590]			NanoBRET Fold Response (tracer at 1μM): 1.05
CC(C)N(CC[C@H](c1ccccc1)c1cc(CCNC(=O)c2ccc(CNC(=O)CCc3ccc4n3[B-](F)(F)[N+]3=C(c5ccc[nH]5)C=CC3=C4)cc2)ccc1O)C(C)C [Tolterodine-BZ-NB590]	3.84	2.14	
O=C(CCc1ccc2n1[B-](F)(F)[N+]1=C(c3ccc[nH]3)C=CC1=C2)NCCOCCOCCNC(=O)OCCOCCN1CCN(C2=Nc3ccccc3Sc3ccccc32)CC1 [Quetiapine-a-2-NB590]	1.56	1.75	
Cc1cc2c(s1)Nc1ccccc1N=C2N1CCN(CCCNC(=O)CCOCCOCCOCCOCCNC(=O)CCc2ccc3n2[B-](F)(F)[N+]2=C(c4ccc[nH]4)C=CC2=C3)CC1 [Olanzapine-a-2-NB590]		1.30	
CN(C)CCC=C1c2ccccc2CCc2ccc(C(=O)NCCNC(=O)CCOCCOCCOCCOCCNC(=O)CCc3ccc4n3[B-](F)(F)[N+]3=C(c5ccc[nH]5)C=CC3=C4)cc21 [Amitriptyline-b-2-NB590]			NanoBRET Fold Response (tracer at 0.1μM, listed as amitriptyline-b-2-NB590): 2.20; NanoBRET Fold Response (tracer at 1μM, listed as amitriptyline-b-2-NB590): 1.55
O=C(CCOCCOCCOCCOCCNC(=O)CCc1ccc2n1[B-](F)(F)[N+]1=C(c3ccc[nH]3)C=CC1=C2)NCCCN1CCN(C2=Nc3cc(Cl)ccc3Nc3ccccc32)CC1 [Clozapine-a-2-NB590]			NanoBRET Fold Response (CHRM2, 0.1μM tracer): 1.50; NanoBRET Fold Response (CHRM2, 1μM tracer): 1.49
CN1CCN(C2=Nc3cc(Cl)ccc3Nc3ccc(CNC(=O)CCOCCOCCOCCOCCNC(=O)CCc4ccc5n4[B-](F)(F)[N+]4=C(c6ccc[nH]6)C=CC4=C5)cc32)CC1 [Clozapine-b-2-NB590]			NanoBRET Fold Response (CHRM2, 0.1μM tracer): 1.48; NanoBRET Fold Response (CHRM2, 1μM tracer): 1.99
Cc1nc2n(c(=O)c1CCN1CCC(c3noc4cc(F)ccc34)CC1)CCCC2OC(=O)NCCOCCOCCOCCOCCNC(=O)CCc1ccc2n1[B-](F)(F)[N+]1=C(c3ccc[nH]3)C=CC1=C2 (stereo not drawn) [Risperidone-2-NB590]	1.09	1.26	

— publication PMC8151276, “An Integrated Approach toward NanoBRET Tracers for Analysis of GPCR Ligand Engagement” (Molecules, 2021)
